These are literature values, as cited in US8584539B2, “Delivery device for dispensing pharmaceutical dosage forms into dissolution testing apparatus” (Rohm and Haas Company, priority 2010, dated 2013).

Where two headings read alike, the source gives them in different places.

Regarding `O=C(O)Cc1ccccc1Nc1c(Cl)cccc1Cl` [diclofenac sodium], the solubility entry runs as follows: (low pH of the stomach) “essentially insoluble”; (near neutral conditions of the upper GI) “soluble”.
